Measured values: publication PMC7802074, “Azanitrile Inhibitors of the SmCB1 Protease Target Are Lethal to Schistosoma mansoni: Structural and Mechanistic Insights into Chemotype Reactivity” (ACS Infectious Diseases, 2020)
Values joined by “and” are separate entries in the source; they are usually repeats but may differ in a detail not shown here. Identical values can stand only once. Like-named read-outs stand apart in the source and are kept apart here.

Experiments:
recombinant SmCB1 = recombinant SmCB1 (Schistosoma mansoni, UniProt Q8MNY2, T185A/T300A); assay: SmCB1 kinetic inhibition assay with fluorogenic substrate Cbz-Phe-Arg-AMC; assay type: biochemical; settings: for Ki / SmCB1 inhibition k2nd (second-order rate constant): substrate Cbz-Phe-Arg-AMC; for SmCB1 inhibition k2nd (second-order rate constant): slow-binding azadipeptide nitriles
recombinant SmCB1, sequence (Q8MNY2 87-340 T185A/T300A): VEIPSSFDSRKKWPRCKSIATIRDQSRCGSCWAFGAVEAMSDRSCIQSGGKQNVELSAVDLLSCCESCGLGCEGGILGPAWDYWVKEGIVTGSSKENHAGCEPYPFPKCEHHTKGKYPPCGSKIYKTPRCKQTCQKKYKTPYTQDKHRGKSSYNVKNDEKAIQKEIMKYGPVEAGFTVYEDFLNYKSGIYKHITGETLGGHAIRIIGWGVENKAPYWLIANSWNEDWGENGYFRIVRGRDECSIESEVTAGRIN
Description: Inhibition measurements were performed in triplicates in 96-well microplates (100 μL assay volume) at 37 °C. SmCB1 (20–40 pM) was added to a mixture of the fluorogenic substrate Cbz-Phe-Arg-AMC (20 μM) and an inhibitor (0–100 μM) in 0.1 M sodium acetate, pH 5.5, containing 2.5 mM dithiothreitol and 0.1% PEG 6000. The substrate hydrolysis was monitored in an Infinite M1000 microplate reader (Tecan, Männedorf, Switzerland) at excitation and emission wavelengths of 360 and 465 nm, respectively, for up to 15 and 60 min for fast- and slow-binding inhibitors, respectively. […] For slow-binding inhibitors, an observed first-order rate constant kobs was calculated at each inhibitor concentration by fitting the progress curve to the equation P = vst + (vi – vs)(1 – […])/kobs + d, where P is the product formation, vs is the steady-state velocity, t is the reaction time, vi is the initial velocity, and d is the offset. The inhibition constant Ki′ was determined by nonlinear regression using the equation vs/v0 = 1/(1 + [I]/Ki′). The true inhibition constants Ki were then calculated using the equation Ki = Ki′/(1 + [S]/Km), where [S] is the substrate concentration and Km is the Michaelis constant. The apparent second-order rate constant k2nd′ was determined by fitting to the linear equation kobs = k2nd′[I] + koff, where koff is the first-order rate constants for the dissociation of the enzyme–inhibitor complex and the true constant k2nd was calculated by the correction k2nd = k2nd′(1 + [S]/Km). […] In none of the assay systems did the final concentration of DMSO exceed 1.5%.

[1] = system: S. mansoni newly transformed schistosomula (NTS); assay: Schistosome phenotypic assay; assay type: cell-based, Schistosoma mansoni; settings: for Severity score Day 1 / Severity score Day 2 / Severity score Day 3 / Severity score Day 4: 10 μM inhibitor, scale 0 (no effect) to 4 (severe); for Severity score Day 1: 24 h; for Severity score Day 2: 48 h
Description: Newly transformed schistosomula (NTS) of S. mansoni were prepared by mechanically transforming infective larvae (cercariae) as described previously.[70],[71] NTS (200–300 parasites) were incubated in 200 μL of Basch Medium 169 containing 5% FBS, 100 U mL^–1 penicillin, and 100 μg mL^–1 streptomycin at 5% CO2 and 37 °C.[70],[72],[73] Inhibitors were added at the final concentration of 10 μM,[20],[69] and changes in phenotypes were observed every 24 h for up to 4 days. A constrained nomenclature of “descriptors” is used to record the multiple and dynamic changes in movement, shape, and translucence of which the schistosome parasite is capable (Table S3).[70] These descriptors are then converted into an ordinal “severity score” system from 0 (no effect) to 4 (maximum effect), which allows for the relative comparison of compound effects, as described.[74],[75] Images of NTS were captured using a Zeiss Axiovert 40 C inverted microscope (10× objective) and a Zeiss AxioCam MRc digital camera controlled by AxioVision 40 (v. 4.8.1.0) software.

[2] = SmCB1 inhibition Ki, kinetic activity assay, pH 5.5, 37 °C
[3] = SmCB1 inhibition Ki, Table S2, carbadipeptide nitriles
[4] = Table S2, carbadipeptide nitriles, read-out: SmCB1 inhibition Ki

| SMILES | Ki (recombinant SmCB1; [2]) [µM] | decrease in potency versus 5a (recombinant SmCB1; ratio of SmCB1 Ki values) [fold] | SmCB1 inhibition k2nd (second-order rate constant) (recombinant SmCB1) | Descriptors Day 1 (phenotypic changes) ([1]; 10 µM inhibitor) | Descriptors Day 2 (phenotypic changes) ([1]; 10 µM inhibitor) | Severity score Day 1 [1] | Severity score Day 2 [1] | Severity score Day 3 [1] | Severity score Day 4 [1] | Ki (recombinant SmCB1; [3]) [µM] | Ki (recombinant SmCB1; [4]) [µM] | Descriptors Day 3 (phenotypic changes) ([1]; 10 µM inhibitor) | Descriptors Day 4 (phenotypic changes) ([1]; 10 µM inhibitor) |
| --- | --- | --- | --- | --- | --- | --- | --- | --- | --- | --- | --- | --- | --- |
| CC(C)C[C@@H](C(=O)N(C)N(C)C#N)N(C)C(=O)c1ccc(-c2noc(-c3cccs3)n2)cc1 [Compound 6a] | 1.54 ± 0.25 | 300 | 0.5 ±0.1 10^3 M^-1 s^-1 | Deg | Deg | 4 and 4/4 | 4 and 4/4 | 4 | 4 |  |  |  |  |
| CN(CC#N)C(=O)[C@H](Cc1ccccc1)NC(=O)OCc1ccccc1 [Compound 9c] | > 100 |  |  |  |  | 0 | 0 | 0 | 0 | > 10 |  |  |  |
| C[C@@H](C#N)NC(=O)[C@H](Cc1ccccc1)NC(=O)OCc1ccccc1 [Compound 8c] |  |  |  |  |  | 0 | 0 | 0 | 0 | > 10 |  |  |  |
| N#CCNC(=O)[C@H](Cc1ccc(O)cc1)NC(=O)OCc1ccccc1 [Gü2031] |  |  |  |  |  | 0 | 0 | 0 | 0 |  | 0.76 ± 0.22 |  |  |
| CN(C#N)N(C)C(=O)C1(NC(=O)c2ccc(-c3noc(-c4cccs4)n3)cc2)CCCCC1 [Compound 7a] | 0.229 ± 0.007 |  |  | R, Unc, Dark | Deg | 3 | 4 | 4 | 4 |  |  |  |  |
| CC(C)(C)OC(=O)N[C@@H](Cc1ccc(-c2ccccc2)cc1)C(=O)NCC#N [Gü1124] |  |  |  |  |  | 0 | 0 | 0 | 0 |  | 0.27 ± 0.05 |  |  |
| CC(C)C[C@H](NC(=O)c1ccc(-c2noc(-c3cccs3)n2)cc1)C(=O)NCC#N [Compound 5c] | 1.21 ± 0.205 |  |  |  | R | 0 | 1 | 2 | 4 | 1.22 ± 0.2 |  | R, Dark | Deg |
| COc1ccc(C[C@H](NC(=O)OCc2ccccc2)C(=O)N(C)N(C)C#N)cc1 [Compound 13a] | 0.0806 ± 0.0071 |  |  | Deg | Deg | 4 and 4/4 | 4 and 4/4 | 4 | 4 |  |  |  |  |
| C[C@@H](C#N)N(C)C(=O)[C@H](Cc1ccccc1)NC(=O)OCc1ccccc1 [Compound 10c] | > 100 |  |  |  |  | 0 | 0 | 0 | 0 | > 10 |  |  |  |
| CC(C)C[C@@H](C(=O)NCC#N)N(C)C(=O)c1ccc(-c2noc(-c3cccs3)n2)cc1 [Compound 6c] | > 100 |  |  |  |  | 0 |  | 0 |  | > 10 |  |  | R |
| N#CCNC(=O)C1(NC(=O)c2ccc(-c3noc(-c4cccs4)n3)cc2)CCCCC1 [Compound 7c] | > 100 |  |  |  |  | 0 | 0 | 0 | 0 | > 10 |  |  |  |
| N#CCNC(=O)[C@H](Cc1ccccc1)NC(=O)c1ccc(-c2ccccc2)cc1 [Gü1136] |  |  |  |  |  | 0 | 0 | 0 | 0 |  | 0.053 ± 0.012 |  |  |
| C[C@H](NC(=O)OCc1ccccc1)C(=O)N(C)N(C)C#N [Compound 15a] | 0.714 ± 0.058 |  |  | R, Unc | Deg | 2 | 4 | 4 | 4 |  |  |  |  |
| CC(C)[C@H](NC(=O)OCc1ccccc1)C(=O)N(C)N(C)C#N [Compound 14a] | 0.0883 ± 0.0104 |  |  | R, Unc, Dark | Deg | 3 | 4 | 4 | 4 |  |  |  |  |
| CN(C(=O)[C@H](Cc1ccccc1)NC(=O)OCc1ccccc1)N(C#N)Cc1ccccc1 [Compound 10a] | 0.0489 ± 0.0047 |  | 1.5 ± 0.1 10^3 M^-1 s^-1 | R, Unc | Deg | 2 | 4 | 4 | 4 |  |  |  |  |
| CC(C)C[C@H](NC(=O)NCc1ccccc1)C(=O)NCC#N [Compound 3c, (S)-2-(3-Benzylureido)-N-(cyanomethyl)-4-methylpentanamide] | > 100 |  |  |  |  | 0 | 0 | 0 | 0 | > 10 |  |  |  |
| CC(C)C[C@H](NC(=O)Nc1ccc(-c2noc(-c3cccs3)n2)cc1)C(=O)N(C)N(C)C#N [Compound 4a] | 0.0367 ± 0.0026 |  | 13.9 ± 2.9 10^3 M^-1 s^-1 | R, Unc, Dark | Deg | 3 | 4 | 4 | 4 |  |  |  |  |
| CCCC[C@H](NC(=O)OC(C)(C)C)C(=O)NCC#N [Gü967] |  |  |  |  |  | 0 | 0 | 0 | 0 |  | 0.87 ± 0.1 |  |  |
| CCC(C)C(NC(=O)OCc1ccccc1)C(=O)N(C)N(C)C#N (centres unmarked) [Compound 12a] | 0.0717 ± 0.0044 |  |  | Deg |  | 4 and 4/4 | 4 and 4/4 | 4 | 4 |  |  |  |  |
| N#CCNC(=O)CNC(=O)OCc1ccccc1 [Compound 1c] | > 100 |  |  |  |  | 0 | 0 | 0 | 0 | > 10 |  |  |  |
